Test results taken from PubChem BioAssay (NCI).
“And” between values parts separate entries of the source, which are not always exact repeats. Identical values can stand only once.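 Cells were grown in 96-well plates and exposed to each compound for 48 hours at five concentrations; endpoints were interpolated linearly between bracketing concentrations, or set to the highest concentration if not reached. GI50 is the concentration that inhibits growth by half. TGI denotes the concentration required for complete inhibition of growth.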

Assays:
Assay in all cases: growth of human tumour cells (NCI), 48 h
A549 NSCLC = tested on: A549 NSCLC
BT-549 breast = tested on: BT-549 breast
CCRF-CEM leukemia = tested on: CCRF-CEM leukemia
COLO 205 colon = tested on: COLO 205 colon
EKVX NSCLC = tested on: EKVX NSCLC
HOP-62 NSCLC = tested on: HOP-62 NSCLC
IGROV1 ovarian = tested on: IGROV1 ovarian
MDA-MB-231 breast = tested on: MDA-MB-231 breast
SF-295 CNS = tested on: SF-295 CNS
SK-MEL-5 melanoma = tested on: SK-MEL-5 melanoma
SR leukemia = tested on: SR leukemia
UACC-62 melanoma = tested on: UACC-62 melanoma

| Structure (SMILES) | TGI (A549 NSCLC) | TGI (BT-549 breast) | TGI (CCRF-CEM leukemia) | TGI (COLO 205 colon) | TGI (EKVX NSCLC) | TGI (HOP-62 NSCLC) | TGI (IGROV1 ovarian) | TGI (MDA-MB-231 breast) | TGI (SF-295 CNS) | TGI (SK-MEL-5 melanoma) | TGI (SR leukemia) | TGI (UACC-62 melanoma) | GI50 (BT-549 breast) |
| --- | --- | --- | --- | --- | --- | --- | --- | --- | --- | --- | --- | --- | --- |
| CS(=O)(=O)OCCN(CCOS(C)(=O)=O)c1ccc(C=Nc2cccc(Cl)c2)cc1 | 29.2 µM | 53.3 µM | > 100 µM | 6.56 µM | 46.6 µM | > 100 µM | > 87.8 µM | 48.6 µM | 28.9 µM | 22.6 µM | 0.307 µM | 15.6 µM |  |
| C=C(C(=O)O)[C@@H]1C[C@@H]2O[C@H]1[C@@H](O)[C@@H](C)CCCC(C)=CCC[C@@]2(C)O | > 100 µM | > 100 µM | > 100 µM | > 100 µM | > 100 µM | > 100 µM | > 100 µM | > 100 µM | > 100 µM | > 100 µM | > 95 µM | > 100 µM | 33.5 µM and > 100 µM |
| Nc1nc(Cl)c(N)c(NCC2(CO)CC2)n1 | > 100 µM | > 100 µM | > 100 µM | > 100 µM | > 100 µM | > 100 µM | > 100 µM | > 100 µM | > 100 µM | > 100 µM | > 100 µM | > 100 µM |  |
| C=C1C(=O)O[C@H]2C[C@@]3(COC(C)=O)C=COC=C(COC(=O)C(C)C)C3CC12 (stereo partly drawn) | > 100 µM | > 100 µM | 63.8 µM | > 100 µM | > 100 µM | > 100 µM | > 100 µM | > 100 µM | > 100 µM | > 100 µM | 91.8 µM | 41.2 µM |  |
| O=C1c2cc(Cl)ccc2NC(=NC2CCCC2)C2CSCN12 (stereo not drawn) | > 100 µM | > 100 µM | > 100 µM | > 100 µM | > 100 µM | > 100 µM | > 100 µM | > 100 µM | > 100 µM | > 100 µM | > 100 µM | > 100 µM |  |
| C=CCC1CC(n2cc(C)c(=O)[nH]c2=O)OC1CO[Si](C)(C)C(C)(C)C (stereo not drawn) | 26.8 µM | 29.6 µM | 29.9 µM | 27 µM | 19.8 µM | 34.7 µM | 23.4 µM | 28.9 µM | 40 µM | 29.9 µM | 11.5 µM | 31.7 µM |  |
